Like-named read-outs stand apart in the source and are kept apart here.
Key:
[1] = Tissue concentrations of LBW242 after daily parenteral dosing; type: in vivo, mice; conditions: 50 mg/kg/d parenterally; for concentration at 14 days: mouse, other: parenteral, after 14 days of daily dosing
Excerpt: For treatment of intracranial tumors, the blood-brain barrier (BBB) is an impediment to drug bioavailability. […].

[2] = system: U87 cells; experiment: U87 cell growth; type: cell-based; conditions: single agent at concentrations of up to 50 μM
[3] = system: LN827 cells; experiment: LN827 cell growth; type: cell-based
[4] = system: LN827 and U87 cells; experiment: Glioma cell growth, cell line not given (figures: LN827 and U87); type: cell-based
[5] = system: PDGFR; experiment: PDGFR abundance and activation state in LN827 cells (blot); type: cell-based
[6] = system: cytoplasmic cytochrome c and Smac/Diablo; experiment: Mitochondrial outer membrane permeabilization: cytoplasmic cytochrome c and Smac/Diablo in LN827 cells; type: cell-based
Excerpt: Multiple upstream pro-apoptotic signals converge at the level of the mitochondria, resulting in mitochondrial outer membrane permeabilization (MOMP) and release of the pro-apoptotic mediators cytochrome c and Smac/Diablo (FIG. 1A).

[7] = system: tumor cells; experiment: Apoptotic cells staining positive with Annexin-V; type: cell-based
[8] = system: LN827 cells; experiment: Apoptosis in LN827 cells after siRNA knockdown of NOL3; type: cell-based
[9] = system: LN827 cells; experiment: Orthotopic glioma model, LN827 cells implanted into brains of mice, bioluminescence imaging; type: in vivo; conditions: AMN107 100 mg/kg per day, LBW242 50 mg/kg twice per day, oral gavage; established tumors
[10] = system: primary human glioma tumor neurospheres; experiment: Primary human glioma tumor neurosphere numbers; type: cell-based; conditions: neurospheres derived from 2 different patients with GBM
Procedure: The treatment combination was assayed in primary human glioma tumor neurospheres.

[11] = system: caspase-3; experiment: Activated caspase-3 in lysates of treated tumor neurospheres (immunoblot); type: cell-based, human; conditions: tumor neurospheres treated for 72 hours
[12] = system: caspase 3/7; experiment: Caspase 3/7 activation in cells; type: cell-based
Excerpt: Next we tested blockade of the growth factor receptor EGFR with the dual EGFR and HER2 kinase inhibitor PKI166 (Bruns et al., 2000).

[13] = system: Akt; experiment: Akt (Ser473) and Bad phosphorylation in LN827 cells (immunoblot); type: cell-based
[14] = system: BCL-2 family of proteins; experiment: Expression of BCL-2 family proteins in LN827 cells (Western blot); type: cell-based
[15] = system: genes in the apoptotic pathway
Excerpt: Table 1 depicts data obtained from mRNA microanalysis for expression of genes in the apoptotic pathway.

[16] = system: NOL3 mRNA; experiment: Independent quantitative RT-PCR analysis of NOL3; type: cell-based
[17] = system: NOL3 protein; experiment: Western blot of NOL3 expression; type: cell-based; conditions: over time
[18] = system: Erk 1/2; experiment: Erk 1/2 phosphorylation in LN827 cells (Western blot); conditions: six hours
Procedure: Alternative mechanisms by which growth factor inhibition may lead to activation of the apoptotic pathway and mitochondrial permeabilization in tumor cells, e.g., gliomas, were also tested.

CNC(C)C(=O)NC(C(=O)N1CCC2CCN(CCc3ccccc3)CC21)C1CCCCC1 (centres unmarked) [LBW242, N-[1-cyclohexyl-2-oxo-2-(6-phenethyl-octahydro-pyrrolo[2,3-c]pyridin-1-yl)-ethyl]-2-methylamino-propionamide]
crossing of the blood-brain barrier [1]: able to cross even the intact BBB | concentration at 14 days ([1]; SK-OV-3 tumor-bearing nude mice, read-out: long-term steady-state concentration in tumors): > 60 µM | concentration at 14 days ([1]; nude, brain, read-out: tissue concentration in normal brain): ~25 µM | effect on the growth of U87 cells [2]: no effect | effect on the growth of LN827 cells ([3]; single agent at concentrations of up to 50 μM, data not shown): no effect | effect on cells over four days of treatment [4]: only mild cytostasis | PDGFR abundance or activity ([5]; LN827 cells): no effect | cytochrome c or Smac/Diablo levels ([6]; as a single agent or in combination with imatinib): no appreciable effect | apoptotic cells staining positive with Annexin-V [7]: minimal change in basal apoptotic level | cellular apoptosis ([8]; depletion of NOL3 (siRNA) combined with LBW242, LN827 cells): significant increase in cellular apoptosis | tumor growth (tumor burden) [9]: no appreciable effect on tumor growth | neurosphere numbers [10]: stand-alone activity | caspase-3 activation [11]: no appreciable caspase-3 activation

Cc1ccc(NC(=O)c2ccc(CN3CCN(C)CC3)cc2)cc1Nc1nccc(-c2cccnc2)n1 [imatinib]
effect on cell growth ([3]; imatinib at 10 μM, LN827 cells): no effect on cell growth | concentrations at which inhibition of LN827 cell growth was observed ([3]; mono-therapy): > 20 µM | effect on cells over four days of treatment [4]: only mild cytostasis | doses at which cell growth was inhibited ([4]; single agent): > 10 µM | overall abundance of PDGFR ([5]; LN827 cells): no effect | activation state of PDGFR ([5]; imatinib at 2.5 uM in LN827 cells): almost completely abolished | concentration at which MOMP was observed ([6]; LN827 cells): 2.5 µM | caspase 3/7 activation [12]: no activation of caspase 3 or 7 | Akt phosphorylation [13]: did not inhibit Akt phosphorylation | downstream phosphorylation of Bad [13]: nor did it inhibit the downstream phosphorylation of Bad | expression of anti- or pro-apoptotic members of the BCL-2 family of proteins [14]: A significant change in expression was not observed | NOL3 expression in individual multi-well screens [15]: downregulate NOL3 in 7 individual multi-well screens | change in mRNA expression of pro- and anti-apoptotic mediators ([15]; imatinib 10 μM): significant change in the expression of only one gene tested: NOL3 | NOL3 mRNA expression [16]: significantly reduced NOL3 mRNA expression | NOL3 protein levels [17]: correlative decrease in NOL3 protein levels | neurosphere numbers [10]: stand-alone activity | caspase-3 activation [11]: no appreciable caspase-3 activation | phosphorylation of Erk 1/2 [18]: did not inhibit phosphorylation of Erk 1/2

Cc1cn(-c2cc(NC(=O)c3ccc(C)c(Nc4nccc(-c5cccnc5)n4)c3)cc(C(F)(F)F)c2)cn1 [AMN107]
apoptotic cells staining positive with Annexin-V [7]: small increase in apoptosis | caspase-3 activation [11]: minimal activation

C[C@@H](Nc1ncnc2[nH]c(-c3ccc(O)cc3)cc12)c1ccccc1 [PKI166]
caspase 3/7 activation [12]: increased levels of caspase 3/7 activation

COc1cc([C@@H]2c3cc4c(cc3[C@@H](O[C@@H]3O[C@@H]5CO[C@@H](C)O[C@H]5[C@H](O)[C@H]3O)[C@H]3COC(=O)[C@H]23)OCO4)cc(OC)c1O [etoposide]
effect of NOL3 depletion on the induction of apoptosis ([8]; NOL3 siRNA knockdown): no effect on the induction of apoptosis
